Among the data in patent US20260022142A1, “MACROCYCLIC IMMUNOMODULATORS” (Bristol-Myers Squibb Company, priority 2022, published 2026) are IC50 values, retold here.

Bridge positions count the residues as written; N and C are the ends. Square brackets hold non-standard residues; d marks the D form. Peptide text beside a SMILES is read from it. * marks the point of attachment. ξ: configuration not given here. Phe(4-CH2CH2COOH) = N[C@@H](Cc1ccc(CCC(=O)O)cc1)C(=O)O; Phe(3-CF3) = N[C@@H](Cc1cccc(C(F)(F)F)c1)C(=O)O; Phe(4-COOH) = N[C@@H](Cc1ccc(C(=O)O)cc1)C(=O)O; Bip = N[C@@H](Cc1ccc(-c2ccccc2)cc1)C(=O)O; Ala(2-furyl) = N[C@@H](Cc1ccco1)C(=O)O; NH(CH2)14COOH = O=C(O)CCCCCCCCCCCCCCN*; Phe(3-Me) = Cc1cccc(C[C@H](N)C(=O)O)c1; Abu(3S-NH2) = C[C@H](N)[C@H](N)C(=O)O; NH(CH2)12COOH = O=C(O)CCCCCCCCCCCCN*; Bta = N[C@@H](Cc1csc2ccccc12)C(=O)O; Val(3-OH) = CC(C)(O)[C@H](N)C(=O)O; hArg = N=C(N)NCCCC[C@H](N)C(=O)O; 4Pal = N[C@@H](Cc1ccncc1)C(=O)O; Cha = N[C@@H](CC1CCCCC1)C(=O)O; Cit = NC(=O)NCCC[C@H](N)C(=O)O; aThr = C[C@H](O)[C@H](N)C(=O)O; dNMeN = CN[C@H](CC(N)=O)C(=O)O; Thr(3ξ) = CC(O)[C@H](N)C(=O)O; Tle = CC(C)(C)[C@H](N)C(=O)O; 12Ado = NCCCCCCCCCCCC(=O)O; Carboxymethyl = O=C(O)C*; Orn = NCCC[C@H](N)C(=O)O; Aun = NCCCCCCCCCCC(=O)O; Dab = NCC[C@H](N)C(=O)O; Dap = NC[C@H](N)C(=O)O; AEEA = NCCOCCOCC(=O)O; Ac3c = NC1(C(=O)O)CC1

For this test, the target named is T1, PD-1/PD-L1 interaction (PE-labeled human PD-L1-Ig binding to Jurkat cell line over-expressing human PD-1) (Homo sapiens, UniProt Q15116).
T1 construct: expressed in transfected cells; host or cells: Jurkat
T1 sequence (Q15116 25-288): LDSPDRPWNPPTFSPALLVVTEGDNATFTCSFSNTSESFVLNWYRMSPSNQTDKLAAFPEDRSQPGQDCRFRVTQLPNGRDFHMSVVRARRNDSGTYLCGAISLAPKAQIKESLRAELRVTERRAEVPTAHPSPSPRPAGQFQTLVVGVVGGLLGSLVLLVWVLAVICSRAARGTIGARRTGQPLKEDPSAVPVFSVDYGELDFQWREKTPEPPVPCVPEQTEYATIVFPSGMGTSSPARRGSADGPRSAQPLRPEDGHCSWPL
The experiment in a line: Jurkat-PD-1 Cell Binding High-Content Screening Assay (CBA). It counts as cell-based. Particulars: Jurkat cell line over-expressing human PD-1; PE-labeled PD-L1-Ig 20 nM final; read-out: Jurkat hPD1-PDL1 IC50. In a few lines:
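Binding of fluorescent PD-L1-Ig (20 nM final) to Jurkat-PD-1 cells was measured by automated imaging after 1 h, following a 2 h compound pre-treatment at 37° C.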
As for `CC[C@H](C)[C@@H]1NC(=O)[C@H](Cc2ccc(-c3ccccc3)cc2)NC(=O)[C@H](C(C)C)NC(=O)[C@H](Cc2cccc(C)c2)NC(=O)[C@H](CC(=O)O)NC(=O)[C@H](Cc2ccc(OCC(=O)O)cc2)NC(=O)[C@H](CN)NC(=O)CSC[C@@H](C(=O)N[C@@H](CCCCN)C(=O)NCCOCCOCC(=O)NCCCCCCCCCCC(=O)O)NC(=O)[C@H](CCCNC(=N)N)NC(=O)[C@H](C(C)C)NC(=O)[C@H](CC2CCCCC2)NC(=O)[C@H](CCN)NC(=O)[C@@H](CC(C)C)NC(=O)[C@H](CCCN)NC1=O` [Compound 2654] ({CH2CO}-[Dap]Y(Carboxymethyl)D[Phe(3-Me)]V[Bip]I[Orn][dL][Dab][Cha]VRCK[AEEA][Aun]-OH; thioether N-14), the IC50 (commonly the concentration needed to halve the response being measured) was determined as 5.2 nM.

As for `CC(C)C[C@H]1NC(=O)[C@H](Cc2cnc[nH]2)NC(=O)[C@H](Cc2ccc(OCC(=O)O)cc2)NC(=O)[C@H](Cc2ccc(-c3ccccc3)cc2)NC(=O)[C@H](Cc2ccc(C(=O)O)cc2)NC(=O)[C@H](Cc2cccc(C(F)(F)F)c2)NC(=O)[C@H](CC(=O)O)NC(=O)[C@H](Cc2ccc(OCC(=O)O)cc2)NC(=O)[C@H](C(C)O)NC(=O)CSC[C@@H](C(=O)N[C@@H](CCN)C(=O)NCCCCCCCCCCC(=O)O)NC(=O)[C@H](C(C)O)NC(=O)[C@H](C(C)C)NC(=O)[C@H](CC2CCCCC2)NC(=O)[C@H](CCN)NC1=O` (stereo partly drawn) [Compound 3821] ({CH2CO}-[Thr(3ξ)]Y(Carboxymethyl)D[Phe(3-CF3)][Phe(4-COOH)][Bip]Y(Carboxymethyl)H[dL][Dab][Cha]V[Thr(3ξ)]C[Dab][Aun]-OH; thioether N-14), the half-maximal inhibitory concentration (IC50) turned out to be 4 nM.

In the case of `Cc1cccc(C[C@@H]2NC(=O)[C@H](CC(=O)O)NC(=O)[C@H](Cc3ccc(OCC(=O)O)cc3)NC(=O)[C@H](CCCNC(=N)N)NC(=O)CSC[C@@H](C(=O)N[C@@H](CCN)C(=O)NCCCCCCCCCCC(=O)O)NC(=O)[C@H]([C@@H](C)O)NC(=O)[C@H](C(C)C)NC(=O)[C@H](CC3CCCCC3)NC(=O)[C@H](CCN)NC(=O)[C@@H](CC(C)C)NC(=O)[C@H](CCCN)NC(=O)[C@H](Cc3ccc(OCC(=O)O)cc3)NC(=O)[C@H](Cc3ccc(-c4ccccc4)cc3)NC(=O)[C@H](Cc3ccc(OCC(=O)O)cc3)NC2=O)c1` [Compound 2157] ({CH2CO}-RY(Carboxymethyl)D[Phe(3-Me)]Y(Carboxymethyl)[Bip]Y(Carboxymethyl)[Orn][dL][Dab][Cha]VTC[Dab][Aun]-OH; thioether N-14), the 50% inhibitory concentration (IC50) was found to be 97.8 nM.

Take `Cc1cccc(C[C@@H]2NC(=O)[C@H](CC(=O)O)NC(=O)[C@H](Cc3ccc(CCC(=O)O)cc3)NC(=O)[C@H](CCCNC(=N)N)NC(=O)CSC[C@@H](C(=O)N[C@@H](CCN)C(=O)N[C@@H](CO)C(=O)NCCCCCCCCCCC(=O)O)NC(=O)[C@H](CCC(=O)O)NC(=O)[C@H](C(C)C)NC(=O)[C@H](CC3CCCCC3)NC(=O)[C@H](CCN)NC(=O)[C@@H](CC(C)C)NC(=O)[C@H](CCN)NC(=O)[C@H](CCCNC(N)=O)NC(=O)[C@H](Cc3ccc(-c4ccccc4)cc3)NC(=O)[C@H](C(C)C)NC2=O)c1` [Compound 2813] ({CH2CO}-R[Phe(4-CH2CH2COOH)]D[Phe(3-Me)]V[Bip][Cit][Dab][dL][Dab][Cha]VEC[Dab]S[Aun]-OH; thioether N-14): the IC50 amounted to 181 nM.

With `CC(C)C[C@H]1NC(=O)[C@H](Cc2cnc[nH]2)NC(=O)[C@H](Cc2ccc(OCC(=O)O)cc2)NC(=O)[C@H](Cc2ccc(-c3ccccc3)cc2)NC(=O)[C@H](Cc2ccc(C(=O)O)cc2)NC(=O)[C@H](Cc2cccc(C(F)(F)F)c2)NC(=O)[C@H](CC(=O)O)NC(=O)[C@H](Cc2ccc(OCC(=O)O)cc2)NC(=O)[C@H](C)NC(=O)CSC[C@@H](C(=O)N[C@@H](CCN)C(=O)NCCCCCCCCCCCCCCC(=O)O)NC(=O)[C@H](C(C)O)NC(=O)[C@H](C(C)(C)O)NC(=O)[C@H](CC2CCCCC2)NC(=O)[C@H](CCN)NC1=O` (stereo partly drawn) [Compound 3862] ({CH2CO}-AY(Carboxymethyl)D[Phe(3-CF3)][Phe(4-COOH)][Bip]Y(Carboxymethyl)H[dL][Dab][Cha][Val(3-OH)][Thr(3ξ)]C[Dab]-{NH(CH2)14COOH}; thioether N-14), the half-maximal inhibitory concentration (IC50) worked out at 368 nM.

Consider `CC(C)C[C@H]1NC(=O)[C@H](CCCN)NC(=O)[C@H](Cc2ccc(C(=O)O)cc2)NC(=O)[C@H](Cc2ccc(-c3ccccc3)cc2)NC(=O)[C@H](Cc2ccc(C(=O)O)cc2)NC(=O)[C@H](Cc2cccc(C(F)(F)F)c2)NC(=O)[C@H](CC(=O)O)NC(=O)[C@H](Cc2ccc(OCC(=O)O)cc2)NC(=O)[C@H]([C@H](C)N)NC(=O)CSC[C@@H](C(=O)N[C@@H](CCN)C(=O)NCCCCCCCCCCCCC(=O)O)NC(=O)[C@H](CO)NC(=O)[C@H](C(C)(C)O)NC(=O)[C@H](CC2CCCCC2)NC(=O)[C@H](CCN)NC1=O` [Compound 2944] ({CH2CO}-[Abu(3S-NH2)]Y(Carboxymethyl)D[Phe(3-CF3)][Phe(4-COOH)][Bip][Phe(4-COOH)][Orn][dL][Dab][Cha][Val(3-OH)]SC[Dab]-{NH(CH2)12COOH}; thioether N-14), for which the IC50 was 55 nM.

On to `CC(C)C[C@H]1NC(=O)[C@H](CCCN)NC(=O)[C@H](C(C)C)NC(=O)[C@H](Cc2ccc(-c3ccccc3)cc2)NC(=O)[C@H](C(C)C)NC(=O)[C@H](Cc2csc3ccccc23)NC(=O)[C@H](CC(=O)O)NC(=O)[C@H](Cc2ccc(OCC(=O)O)cc2)NC(=O)[C@H](CCCCNC(=N)N)NC(=O)CSC[C@@H](C(=O)N[C@@H](CCCN)C(=O)NCCCCCCCCCCC(=O)O)NC(=O)[C@H](CO)NC(=O)[C@H](C(C)C)NC(=O)[C@H](CC2CCCCC2)NC(=O)[C@H](CCN)NC1=O` [Compound 3067] ({CH2CO}-[hArg]Y(Carboxymethyl)D[Bta]V[Bip]V[Orn][dL][Dab][Cha]VSC[Orn][Aun]-OH; thioether N-14), for which the half-maximal inhibitory concentration (IC50) turned out to be 41 nM.

`Cc1cccc(C[C@@H]2NC(=O)[C@H](CC(=O)O)NC(=O)[C@H](Cc3ccc(OCC(=O)O)cc3)NC(=O)[C@H](CCCNC(=N)N)NC(=O)CSC[C@@H](C(=O)N[C@H](CC(N)=O)C(=O)NCCCCCCCCCCC(=O)O)NC(=O)[C@H](CCC(N)=O)NC(=O)[C@H](C(C)(C)C)NC(=O)[C@H](CC3CCCCC3)NC(=O)[C@H](CCN)NC(=O)[C@@H](CC(C)C)NC(=O)[C@H](CCCN)NC(=O)[C@H](Cc3ccc(OCC(=O)O)cc3)NC(=O)[C@H](Cc3ccc(-c4ccccc4)cc3)NC(=O)[C@H](Cc3ccc(OCC(=O)O)cc3)NC2=O)c1` [Compound 3528] ({CH2CO}-RY(Carboxymethyl)D[Phe(3-Me)]Y(Carboxymethyl)[Bip]Y(Carboxymethyl)[Orn][dL][Dab][Cha][Tle]QC[dN][Aun]-OH; thioether N-14): the IC50 was 87.8 nM.

Regarding `Cc1cccc(C[C@@H]2NC(=O)[C@H](CC(=O)O)NC(=O)[C@H](Cc3ccc(OCC(=O)O)cc3)NC(=O)[C@H]([C@H](C)O)NC(=O)CSC[C@@H](C(=O)N[C@@H](CCN)C(=O)NCCCCCCCCCCC(=O)O)NC(=O)[C@H](CO)NC(=O)[C@H](C(C)(C)O)NC(=O)[C@H](CC3CCCCC3)NC(=O)[C@H](CCN)NC(=O)[C@@H](CC(C)C)NC(=O)[C@H](CCCN)NC(=O)[C@H](Cc3ccc(OCC(=O)O)cc3)NC(=O)[C@H](Cc3ccc(-c4ccccc4)cc3)NC(=O)[C@H](Cc3ccc(OCC(=O)O)cc3)NC2=O)c1` [Compound 2205] ({CH2CO}-[aThr]Y(Carboxymethyl)D[Phe(3-Me)]Y(Carboxymethyl)[Bip]Y(Carboxymethyl)[Orn][dL][Dab][Cha][Val(3-OH)]SC[Dab][Aun]-OH; thioether N-14), the IC50 was found to be 12.5 nM.

`CC[C@H](C)[C@@H]1NC(=O)[C@H](Cc2ccc(-c3ccccc3)cc2)NC(=O)[C@H](C(C)C)NC(=O)[C@H](Cc2c[nH]c3ccccc23)NC(=O)[C@H](CC(=O)O)NC(=O)[C@H](Cc2ccc(OCC(=O)O)cc2)NC(=O)[C@H](Cc2ccncc2)NC(=O)CSC[C@@H](C(=O)N[C@@H](CCCN)C(=O)NCCOCCOCC(=O)NC2(C(=O)NCCCCCCCCCCC(=O)O)CC2)NC(=O)[C@H](CN)NC(=O)[C@H](C(C)C)NC(=O)[C@H](CC(C)C)NC(=O)[C@H](CCN)NC(=O)[C@@H](CC(C)C)NC(=O)[C@H](CCCN)NC1=O` [Compound 2006] ({CH2CO}-[4Pal]Y(Carboxymethyl)DWV[Bip]I[Orn][dL][Dab]LV[Dap]C[Orn][AEEA][Ac3c][Aun]-OH; thioether N-14): the half-maximal inhibitory concentration (IC50) is 7.7 nM.

Regarding `CC(C)C[C@H]1NC(=O)[C@H](CCCN)NC(=O)[C@H](C(C)C)NC(=O)[C@H](Cc2ccc(-c3ccccc3)cc2)NC(=O)[C@H](C(C)C)NC(=O)[C@H](Cc2c[nH]c3ccccc23)NC(=O)[C@H](CC(=O)O)NC(=O)[C@H](Cc2ccc(OCC(=O)O)cc2)NC(=O)[C@H](Cc2ccc(OCC(=O)O)cc2)NC(=O)CSC[C@@H](C(=O)NCC(=O)NCCOCCOCC(=O)N[C@@H](CCCN)C(=O)NCCCCCCCCCCCC(=O)O)NC(=O)[C@H](CO)NC(=O)[C@H](C(C)C)NC(=O)[C@H](CC2CCCCC2)NC(=O)[C@H](CCN)NC1=O` [Compound 3179] ({CH2CO}-Y(Carboxymethyl)Y(Carboxymethyl)DWV[Bip]V[Orn][dL][Dab][Cha]VSCG[AEEA][Orn][12Ado]-OH; thioether N-14), the concentration for half-maximal inhibition (IC50) came to 16.1 nM.

For the compound `Cc1cccc(C[C@@H]2NC(=O)[C@H](CC(=O)O)NC(=O)[C@H](Cc3ccc(OCC(=O)O)cc3)NC(=O)[C@H](Cc3ccco3)NC(=O)CSC[C@@H](C(=O)N(C)[C@H](CC(N)=O)C(=O)NCCCCCCCCCCC(=O)O)NC(=O)[C@H](CCCN)NC(=O)[C@H](C(C)C)NC(=O)[C@H](CC3CCCCC3)NC(=O)[C@H](CCN)NC(=O)[C@@H](CC(C)C)NC(=O)[C@H](CCN)NC(=O)[C@H](C(C)C)NC(=O)[C@H](Cc3ccc(-c4ccccc4)cc3)NC(=O)[C@H](C(C)C)NC2=O)c1` [Compound 3352] ({CH2CO}-[Ala(2-furyl)]Y(Carboxymethyl)D[Phe(3-Me)]V[Bip]V[Dab][dL][Dab][Cha]V[Orn]C[dNMeN][Aun]-OH; thioether N-14), the IC50 amounted to 26.5 nM.
